# From patent US20240166702A1, “COMPOSITIONS AND METHODS FOR TREATING BREAST CANCER” (Arizona Board of Regents on Behalf of The University of …, priority 2021, published 2024)
# Key:
# MDA-MB-468 cells [1] = assay type: cell-based, human
# Procedure: A. Peptide sequence alignment of modified and stabilized peptides (−) indicates conserved residues, (/) indicates a deleted residue. Modified residues used for staples are (S)-2-(((9H-flouren-9-yl) methoxy) caronylamino)-2-methyl-hept-6-enoic acid (5) and (R)-2-(((9H-flouren-9-yl) methoxy) caronylamino)-2-methyl-dec-9-enoic acid (8). PTD4=Protein Transduction Domain. Ac=acetylation of 5′ end and NH2=amidation of 3′ end. B. MDA-MB-468 cells were treated with 10 μM of the indicated peptide for 3 days. Cell viability was measured using an MTT assay. Vehicle control represents 100%. C. A predicted peptide structure of SNX1.3 was generated using SWISSMODEL with negative (blue) and positive (red) residues highlighted.
# (§1) B. MDA-MD-468 cells were transduced with an IPTG inducible shEGFR targeted against the 3′ UTR of EGFR. These cells were incubated with IPTG for the indicated number of days and lysates were generated to confirm knock down of EGFR. C. In tandem with B., cells were plated and incubated +/−IPTG for 2 days prior to drug treatment. […] After 5 days of IPTG and 3 days of peptide treatment viability was measured using an MTT assay.
# Predicted peptide structure including negatively (blue) and positively (red) charged residues was used to guide the modifications (FIG. 2C).
# MDA-MB-468 cells [2] = experiment: Bulk RNAseq of treated MDA-MB-468 cells; assay type: cell-based, human; details: MDA-MB-468, bulk RNAseq in triplicate
# Procedure: C. WAP-TGFα tumors treated with either SNX1.3 or cPTD4 were analyzed for NK cells using an anti-NKp46 antibody. Inset is 20×.
# A-C. […] A. A gene ontology enrichment bubble plot was produced, and the top 30 enriched GO terms are shown. Color indicates −1*log 10(FDR) for significance of overlap (the higher the more significant). X axis=log odds ratio for genes annotated to that GO term. […] C. RT-PCR analysis of IL1RL1.
# In addition to bioinformatics identification of CTLs in these tumors, similar analysis implicated recruitment of NK cells as well (FIG. 9). As a part of the innate immune system, NK cells should only be recruited if a change has occurred to display NK-activating antigens. While there are many such antigens expressed under a variety of immune modulation conditions, some are highly associated with activation of NK cells against cancers, such as ULBP2/3 or MICA/MICB32.
# A significant impact on the immune response, especially IL-1 dependent pathways was identified (FIG. 12A). IL-1-specific genes were searched and an upregulation in several IL1R genes, including IL1R2, IL1RL1, IL1RL2, IL1RAP and IL1RN (FIG. 12B) were found. […] It is hypothesized that the transient and targeted activation of the IL1/TLR pathway in the tumors may allow for the immune system to become active where previously these tumors were immune suppressive. […]
# [3] = system: H1975 cell line with an EGFR driver mutation in the kinase domain (T790M); experiment: MTT cell viability assay in H1975 cells; assay type: cell-based; details: 3 days
# [4] = system: BT20 triple negative breast cancer cells; experiment: BT20 mammosphere assay; assay type: cell-based, human
# Procedure: Cells were then fractionated and verified by HSP90 cytosolic protein, Bap31 membrane protein, or HDAC nuclear protein. B. MDA-MB-468 cells were serum starved overnight then stimulated with EGF on ice for 10 minutes. […] B. MDA-MB-468 cells were serum starved overnight then incubated on ice with 10 ng/mL EGF for 10 minutes. […] C. […] After the second week, the number of secondary mammospheres were counted.
# [5] = system: A549 lung cancer line with wildtype EGFR; experiment: MTT cell viability assay in A549 cells; assay type: cell-based; details: 3 days
# BT20 cells = assay type: cell-based, human
# Procedure: as §1
# To investigate rt-EGFR, the role of the Sorting Nexins to regulate EGFR trafficking to the lysosome for degradation was investigated. To determine if SNX1 domains could be therapeutically mimicked, three SNX1-based peptides were synthesized, each of which was generated in tandem with a Cell Penetrating Peptide domain (PTD-4) to allow for intracellular penetration^19 (SNX1.1, 1.2 and 1.3, FIG. 2A). The ability of each peptide to reduce cell survival in the triple negative breast cancer cell line BT20 was evaluated.
# EGFR activity is known to promote the activity of other RTKs, including those in the EGFR family (HER2, HER3 and HER4) and the c-Met receptor (Puri and Salgia 2008; Linklater et al. 2016). Therefore, the ability of SNX1.3 to inhibit 2D migration was next evaluated, both in response to EGF as well as other migration-inducing ligands. […] Cells were plated on plastic and allowed to migrate into an artificial wound over 12 hours. […] To determine if this inhibitory effect was restricted to EGF-induced migration, the ability of SNX1.3 to impact neuregulin (NRG1) was also tested and hepatic growth factor (HGF)-induced migration. NRG is the ligand for HER3 and HER4, and HGF the ligand for the c-Met receptor, both of which are receptor tyrosine kinases. In addition, soluble hyaluronic acid (HA)-induced migration, the ligand for CD44, was also tested [a non-kinase membrane receptor that induces migration (Louderbough, Lopez, and Schroeder 2010)]. […] Note that all receptors undergo endocytosis, with the RTKs primarily undergoing clathrin-dependent endocytosis, while CD44 endocytosis is clathrin-independent (Dutta and Donaldson 2015).
compound,measurement,setting,value
CC[C@H](C)[C@H](NC(=O)[C@@H](NC(=O)[C@H](Cc1c[nH]cn1)NC(=O)[C@H](CC(N)=O)NC(=O)[C@H](CCCCN)NC(=O)[C@H](C)NC(=O)[C@H](CCCNC(=N)N)NC(=O)[C@H](C)NC(=O)[C@H](CCC(N)=O)NC(=O)[C@H](CCCNC(=N)N)NC(=O)[C@H](C)NC(=O)[C@H](C)NC(=O)[C@H](C)NC(=O)[C@H](CCCNC(=N)N)NC(=O)[C@H](C)NC(=O)[C@H](Cc1ccc(O)cc1)NC(C)=O)C(C)C)C(=O)N[C@@H](CCCCN)C(=O)N[C@@H](Cc1ccc(O)cc1)C(=O)N[C@@H](CC(C)C)C(=O)N[C@@H](CCC(=O)O)C(=O)N[C@H](C(=O)N[C@@H](CC(C)C)C(=O)N[C@@H](CC(C)C)C(=O)N[C@@H](Cc1ccc(O)cc1)C(=O)N[C@@H](CO)C(=O)N[C@@H](CCC(N)=O)C(=O)N[C@@H](CCC(N)=O)C(=O)N[C@@H](CCC(N)=O)C(=O)N[C@@H](CC(C)C)C(=O)N[C@@H](C)C(=O)N[C@@H](CCCCN)C(=O)N[C@@H](Cc1ccc(O)cc1)C(=O)N[C@@H](Cc1c[nH]c2ccccc12)C(=O)N[C@@H](CCC(=O)O)C(=O)N[C@@H](C)C(=O)N[C@@H](Cc1ccccc1)C(=O)N[C@@H](CC(C)C)C(N)=O)[C@@H](C)O [cSNX1.3],IC50,MDA-MB-468 cells [1]; 9 h,7.5 µM
same,efficacy after C- and N-terminal peptide end-capping,"MDA-MB-468 cells [1]; MDA-MB-468, 10 μM peptide for 3 days, MTT assay",increased efficacy
same,"inhibition of cell survival, compared with Sapitinib","MDA-MB-468 cells [1]; MDA-MB-468, 3 days, MTT assay",more effective than Sapitinib
same,"NK activating antigens ULBP2, ULBP3, MICA and MICB",MDA-MB-468 cells [2],increased
same,PDL1 expression,MDA-MB-468 cells [2],did not alter
same,effect on cell viability,[3],no effect
same,secondary sphere formation after treatment in the first week only,"[4]; BT20, cSNX1.3 in first week, cPTD4 or vehicle in second week",significant reduction of sphere formation
same,mammosphere formation,"[4]; BT20, first week of treatment",no mammospheres were formed
same,"secondary mammosphere formation, treated in the second week","[4]; BT20, re-plated, treatment on the second week",no mammosphere formation
same,"inhibition of cell survival, compared with Sapitinib",[5],more effective than Sapitinib
same,IC50,BT20 cells,25 µM
same,"inhibition of cell survival, compared with Sapitinib","BT20 cells; BT20, 3 days, MTT assay",more effective than Sapitinib
